The subject of this assay is primary cultures of rat neonatal cortex (cultured cortical neurons). Type of assay: cell-based.

Non-standard residues stand in square brackets, D forms with d. No end group written: not given here. Hyp = O=C(O)[C@@H]1C[C@@H](O)CN1

A-O-A-N-S-V-W-S (A[Hyp]ANSVWS) [gla-2]: the “effect on Ca^++ flux in the cells” value is “reducing Ca^++ flux” and the “modulation of Ca^++ flux in cultured neurons from rat cortex” value is listed as “modulate Ca^++ flux”.
